In experiment [1] the target is T1, Recombinant human His6-USP1/His6-UAF1 complex protein (Homo sapiens, UniProt O94782).
T1 construct: His6; purchased R&D E-568-050
Kind of experiment: In vitro inhibitory activity against USP1 (Ubiquitin Rhodamine 110 fluorescence detection, 384-well plate). It counts as biochemical. To be noted: Ub-Rho substrate, 1 hour pre-incubation, read after 30 minutes. The method, boiled down: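 Compounds, kept as 50 mM DMSO stocks, were acoustically dispensed into modified Tris buffer. Inhibition of recombinant human His6-USP1/His6-UAF1 was read by fluorescence from cleavage of Ub-Rho110 substrate.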

The test system of experiment [2] is MDA-MB-436. Kind of experiment: CTG experiment for cell viability (CellTiter-Glo, 96-well plate, 7 days). Format: cell-based. To be noted: Homo sapiens, MDA-MB-436, 168 h, MDA-MB-436 cells, 7 days culture with compound. The method, boiled down:
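Viability was read by CellTiter-Glo luminescence after 10 min at room temperature, once the compound-containing medium had been replaced with PBS. Before that, MDA-MB-436 cells grown in DMEM were exposed to compounds for 7 days at 37°C. Curve fitting followed the enzyme assay method.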
On the technique in general: Cellular ATP, detected with luciferase, serves as a proxy for viable cell number.

T1 sequence (O94782 whole entry): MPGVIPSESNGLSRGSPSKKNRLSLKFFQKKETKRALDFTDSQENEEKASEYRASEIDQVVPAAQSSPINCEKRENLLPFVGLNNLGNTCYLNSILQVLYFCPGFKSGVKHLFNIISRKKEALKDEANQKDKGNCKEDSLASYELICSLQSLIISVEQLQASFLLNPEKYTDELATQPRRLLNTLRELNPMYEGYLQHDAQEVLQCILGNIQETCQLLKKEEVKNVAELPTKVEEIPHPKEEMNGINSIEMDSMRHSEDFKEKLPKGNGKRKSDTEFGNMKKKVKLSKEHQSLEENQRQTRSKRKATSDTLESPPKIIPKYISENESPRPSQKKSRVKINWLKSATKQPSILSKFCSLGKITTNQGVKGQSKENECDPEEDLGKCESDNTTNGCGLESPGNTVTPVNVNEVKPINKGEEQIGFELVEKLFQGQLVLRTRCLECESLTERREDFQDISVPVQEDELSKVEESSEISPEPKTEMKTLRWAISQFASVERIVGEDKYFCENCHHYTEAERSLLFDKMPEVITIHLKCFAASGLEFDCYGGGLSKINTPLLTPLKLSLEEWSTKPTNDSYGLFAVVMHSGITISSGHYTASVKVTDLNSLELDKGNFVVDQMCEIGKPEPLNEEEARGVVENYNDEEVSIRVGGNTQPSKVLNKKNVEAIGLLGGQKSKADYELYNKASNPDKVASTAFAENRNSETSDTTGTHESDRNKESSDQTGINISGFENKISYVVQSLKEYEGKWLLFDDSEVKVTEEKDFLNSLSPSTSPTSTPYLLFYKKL
T1 sequence (Q8TAF3 whole entry partner): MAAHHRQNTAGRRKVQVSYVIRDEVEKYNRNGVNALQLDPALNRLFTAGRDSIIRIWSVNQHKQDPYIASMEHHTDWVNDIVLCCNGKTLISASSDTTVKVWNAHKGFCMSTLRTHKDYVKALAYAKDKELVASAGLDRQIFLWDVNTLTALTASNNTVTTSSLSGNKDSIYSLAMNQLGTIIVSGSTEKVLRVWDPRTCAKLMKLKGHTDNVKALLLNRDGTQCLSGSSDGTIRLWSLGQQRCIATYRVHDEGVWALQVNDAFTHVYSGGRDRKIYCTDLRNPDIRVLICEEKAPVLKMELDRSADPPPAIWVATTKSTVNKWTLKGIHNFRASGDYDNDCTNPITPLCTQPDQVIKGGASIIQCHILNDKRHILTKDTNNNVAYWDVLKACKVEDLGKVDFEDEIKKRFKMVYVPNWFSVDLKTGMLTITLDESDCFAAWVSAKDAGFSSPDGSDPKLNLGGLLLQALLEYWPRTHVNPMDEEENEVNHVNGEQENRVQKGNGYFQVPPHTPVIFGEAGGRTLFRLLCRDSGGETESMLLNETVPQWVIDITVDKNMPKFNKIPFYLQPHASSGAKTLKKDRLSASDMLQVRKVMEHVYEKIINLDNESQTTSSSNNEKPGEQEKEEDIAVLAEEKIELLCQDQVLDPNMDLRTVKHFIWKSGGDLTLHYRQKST

For `COc1cnc(-c2c(C)cnn2C(C)C)nc1N(C)Cc1ccc(-c2nc(C(F)(F)F)cn2C)cc1` [Example 200, 2-(1-Isopropyl-4-methyl-1H-pyrazol-5-yl)-5-methoxy-N-methyl-N-(4-(1-methyl-4-(trifluoromethyl)-1H-imidazol-2-yl)benzyl)pyrimidin-4-amine], the IC50 in experiment [1] and in experiment [2] was 2.8 nM in each case.

`COc1cnc(-c2c(C)cnn2C(C)C)nc1N(C)Cc1ccc(-n2nc(C(F)(F)F)cc2C)cc1` [Example 201, 2-(1-Isopropyl-4-methyl-1H-pyrazol-5-yl)-5-methoxy-N-methyl-N-(4-(5-methyl-3-(trifluoromethyl)-1H-pyrazol-1-yl)benzyl)pyrimidin-4-amine]: the results for the IC50 in experiment [1] and in experiment [2] were 12 nM and 40.5 nM, respectively.

`COc1cnc(-c2c(C)cnn2C(C)C)nc1NCc1ccc(-c2nc(C(F)(F)F)cn2C)cc1` [Example 202, 2-(1-Isopropyl-4-methyl-1H-pyrazol-5-yl)-5-methoxy-N-(4-(1-methyl-4-(trifluoromethyl)-1H-imidazol-2-yl)benzyl)pyrimidin-4-amine]: the values for the IC50 in experiment [1] and in experiment [2] were 3 nM and 15.9 nM, respectively.

As for `C#Cc1cnc(-c2c(C)cnn2C(C)C)nc1NCc1ccc(-c2nc(C(F)(F)F)cn2C)cc1` [Example 203, 5-Ethynyl-2-(1-isopropyl-4-methyl-1H-pyrazol-5-yl)-N-(4-(1-methyl-4-(trifluoromethyl)-1H-imidazol-2-vl)benzyl)pyrimidin-4-amine], the IC50 in experiment [1] was determined as 1.4 nM; in experiment [2], 3.3 nM.

Regarding `COc1cnc(-c2c(OC)ncnc2C2CC2)nc1N(O)Cc1ccc(-c2nc(C(F)(F)F)cn2C)cc1` [Example 204, N-(4'-cyclopropyl-5,6'-dimethoxy-[2,5'-bipyrimidin]-4-yl)-N-(4-(1-methyl-4-(trifluoromethyl)-1H-imidazol-2-yl)benzyl)hydroxylamine], the IC50 in experiment [1] came to 25 nM; in experiment [2], 15.7 nM.

With `COc1cnc(-c2c(OC)ncnc2C2CC2)nc1N(C)CC12C3C4C1C1C2C3C41c1nc(C(F)(F)F)cn1C` (stereo not drawn) [Example 207, 2-(4-cyclopropyl-6-methoxy-pyrimidin-5-yl)-5-methoxy-N-methyl-N-[[4-[1-methyl-4-(trifluoromethyl)imidazol-2-yl]cuban-1-yl]methyl]pyrimidin-4-amine], the results for the IC50 in experiment [1] and in experiment [2] were 3.5 nM and 5.8 nM, respectively.

On to `COc1cnc(-c2c(Cl)cnn2C(C)C)nc1NCC12CCC(c3nc(C(F)(F)F)cn3C)(CC1)OC2` [Example 209, 2-(4-chloro-1-isopropyl-1H-pyrazol-5-yl)-5-methoxy-N-((1-(1-methyl-4-(trifluoromethyl)-1H-imidazol-2-yl)-2-oxabicyclo[2.2.2]octan-4-yl)methyl)pyrimidin-4-amine], for which the figures for the IC50 in experiment [1] and in experiment [2] were 1.6 nM and 31.6 nM, respectively.

Take `COc1cnc(-c2c(OC)ncnc2C2CC2)nc1NCC12CCC(c3nc(C(F)(F)F)cn3C)(CC1)OC2` [Example 210]: the IC50 was 85 nM in experiment [1] and 169 nM in experiment [2].

In the case of `COc1cnc(-c2c(OC)ncnc2C2CC2)nc1NCC12C3C4C1C1C2C3C41c1nc(C(F)(F)F)cn1C` (stereo not drawn) [Example 215], the IC50 in experiment [1] amounted to 2.2 nM; in experiment [2], 8.7 nM.

Take `COc1cnc(-c2c(OC)ncnc2C2CC2)nc1NCC12C3C4C1C1C2C3C41c1nc(C(F)(F)F)cn1C1CC1` (stereo not drawn) [Example 216, 4'-cyclopropyl-N-((4-(1-cyclopropyl-4-(trifluoromethyl)-1H-imidazol-2-yl)cuban-1-yl)methyl)-5,6'-dimethoxy-[2,5'-bipyrimidin]-4-amine]: the IC50 was 1.4 nM in experiment [1] and 2.7 nM in experiment [2].

As for `[2H]C([2H])([2H])N(c1nc(-c2c(OC)ncnc2C2CC2)ncc1OC)C(C)c1ccc(-c2nc(C(F)(F)F)cn2C)cc1` (stereo not drawn) [Example S3, 4'-Cyclopropyl-5,6'-dimethoxy-N-(methyl-D3)-N-(1-(4-(1-methyl-4-(trifluoromethyl)-1 H-imidazol-2-yl)phenyl)ethyl)-[2,5'-bipyrimidin]-4-amine], the IC50 in experiment [1] amounted to 2.7 nM; in experiment [2], 0.3 nM.

Regarding `[2H]C([2H])([2H])N(CC12CCC(c3nc(C(F)(F)F)cn3C)(CC1)CC2)c1nc(-c2c(OC)ncnc2C2CC2)ncc1OC` [Example S4, 4'-Cyclopropyl-5,6'-dimethoxy-N-(methyl-d3)-N-((4-(1-methyl-4-(trifluoromethyl)-1H-imidazol-2-yl)bicyclo[2.2.2]oct-1-yl)methyl)-[2,5'-bipyrimidin]-4-amine], the results for the IC50 in experiment [1] and in experiment [2] were 4.9 nM and 2.3 nM, respectively.

With `[2H]C([2H])([2H])Oc1ncnc(C2CC2)c1-c1ncc(OC)c(NCC23CCC(c4nc(C(F)(F)F)cn4C)(CC2)CC3)n1` [Example S5, 4'-Cyclopropyl-5-methoxy-6'-(methoxy-D3)-N-((4-(1-methyl-4-(trifluoromethyl)-1H-imidazol-2-yl)bicyclo[2.2.2]oct-1-yl)methyl)-[2,5'-bipyrimidin]-4-amine], the IC50 in experiment [1] was 14 nM; in experiment [2], 20.2 nM.

As for `COc1cnc(-c2c(OC)ncnc2C2CC2)nc1NCc1ccc(-c2nc(C(F)(F)F)cn2CC(F)(F)F)cc1` [Example S7, 4'-Cyclopropyl-56'-dimethoxy-N-(4-(1-(2,2,2-trifluoroethyl)-4-(trifluoromethyl)-1H-imidazol-2-yl)benzyl)-[2,5'-bipyrimidin]-4-amine], the IC50 in experiment [1] was 12 nM; in experiment [2], 17.1 nM.

On to `COc1cnc(-c2c(Cl)cnn2C(C)C)nc1N(C)CC12CCC(c3nc(C(F)(F)F)cn3C3CCC3)(CC1)OC2` [Example S12, 2-(4-Chloro-1-isopropyl-1H-pyrazol-5-yl)-N-((1-(1-cyclobutyl-4-(trifluoromethyl)-1H-imidazol-2-yl)-2-oxabicyclo[2.2.2]oct-4-yl)methyl)-5-methoxy-N-methylpyrimidin-4-amine], for which the results for the IC50 in experiment [1] and in experiment [2] were 35 nM and 168 nM, respectively.

As for `COc1cnc(-c2c(Cl)cnn2C(C)C)nc1N(C)CC12CCC(c3nc(C(F)(F)F)cn3C(C)C)(CC1)OC2` [Example S13, 2-(4-Chloro-1-isopropyl-1H-pyrazol-5-yl)-N-((1-(1-isopropyl-4-(trifluoromethyl)-1H-imidazol-2-yl)-2-oxabicyclo[2.2.2]oct-4-yl)methyl)-5-methoxy-N-methylpyrimidin-4-amine], the IC50 in experiment [1] worked out at 13 nM; in experiment [2], 60.8 nM.

For the molecule `COc1cnc(-c2c(OC)ncnc2C(F)(F)F)nc1NCC12CCC(c3nc(C(F)(F)F)cn3C(C)C)(CC1)OC2` [Example S15, N-((1-(1-Isopropyl-4-(trifluoromethyl)-1H-imidazol-2-yl)-2-oxabicyclo[2.2.2]oct-4-yl)methyl)-4',5-dimethoxy-6'-(trifluoromethyl)-[2,5'-bipyrimidin]-4-amine], the figures for the IC50 in experiment [1] and in experiment [2] were 91 nM and 239 nM, respectively.

For the molecule `COc1cnc(-c2c(OC)ncnc2C2CC2)nc1NCC12CCC(c3nc(C(F)(F)F)cn3C3CCC3)(CC1)OC2` [Example S16, N-((1-(1-Cyclobutyl-4-(trifluoromethyl)-1H-imidazol-2-yl)-2-oxabicyclo[2.2.2]oct-4-yl)methyl)-4'-cyclopropyl-5,6'-dimethoxy-[2,5'-bipyrimidin]-4-amine], the IC50 turned out to be 34 nM in experiment [1] and 40.3 nM in experiment [2].

Regarding `COc1cnc(-c2c(Cl)cnn2C(C)C)nc1N(C)CC12CCC(c3nc(C(F)(F)F)cn3C)(CC1)OC2` [Example S17, 2-(4-Chloro-1-isopropyl-1H-pyrazol-5-yl)-5-methoxy-N-methyl-N-((1-(1-methyl-4-(trifluoromethyl)-1H-imidazol-2-yl)-2-oxabicyclo[2.2.2]oct-4-yl)methyl)pyrimidin-4-amine], the results for the IC50 in experiment [1] and in experiment [2] were 6.1 nM and 35.9 nM, respectively.

As for `COc1cnc(-c2c(OC)ncnc2C2CC2F)nc1NCC12CCC(c3nc(C(F)(F)F)cn3C)(CC1)CC2` (stereo not drawn) [Example S18, 4'-(2-Fluorocyclopropyl)-5,6'-dimethoxy-N-((4-(1-methyl-4-(trifluoromethyl)-1 H-imidazol-2-yl)bicyclo[2.2.2]oct-1-yl)methyl)-[2,5'-bipyrimidin]-4-amine], the IC50 in experiment [1] came to 12 nM; in experiment [2] it was 10.7 nM.

Regarding `COc1cnc(-c2c(OC)ncnc2C2CC2)nc1NC[C@H]1CC[C@H](c2nc(C(F)(F)F)cn2C)CC1` [Example S20], the IC50 was 19 nM in experiment [1] and 21.4 nM in experiment [2].

As for `COc1cnc(-c2c(OC)ncnc2C2CC2)nc1N(C)C[C@H]1CC[C@H](c2nc(C(F)(F)F)cn2C)CC1` [Example S21], the IC50 was 6 nM in experiment [1] and 4.7 nM in experiment [2].

Regarding `[2H]C([2H])([2H])N(C[C@H]1CC[C@H](c2nc(C(F)(F)F)cn2C)CC1)c1nc(-c2c(OC)ncnc2C2CC2)ncc1OC` [Example S22, 4'-Cyclopropyl-5,6'-dimethoxy-N-(methyl-d3)-N-(((1r,4r)-4-(1-methyl-4-(trifluoromethyl)-1H-imidazol-2-yl)cyclohexyl)methyl)-[2,5'-bipyrimidin]-4-amine], the IC50 stood at 4.6 nM in experiment [1] and 4.5 nM in experiment [2].

For the molecule `[2H]C([2H])([2H])N(C[C@H]1CC[C@H](c2nc(C(F)(F)F)cn2C2CC2)CC1)c1nc(-c2c(OC)ncnc2C2CC2)ncc1OC` [Example S23, 4'-Cyclopropyl-N-(((1R,4R)-4-(1-cyclopropyl-4-(trifluoromethyl)-1H-imidazol-2-yl)cyclohexyl)methyl)-5,6'-dimethoxy-N-(methyl-D3)-[2,5'-bipyrimidin]-4-amine], the IC50 turned out to be 4.8 nM in experiment [1] and 0.1 nM in experiment [2].

Usually IC50 stands for the midpoint of a concentration-inhibition curve.

Source of the values: EP4741386A1 (Jiangsu Yahong Meditech Co., Ltd., priority 2023, dated 2025).
